Ends that are not written are not given here.
Experiments:
NFκB target genes = experiment: Expression of NFκB target genes in PC-3 cells (RNA-seq, RT-qPCR); type: cell-based, human; details: PC-3 cells expressing peptide, TNFα 20 ng/mL, 24 hours
Procedure: FIGS. 4A-G. RB globally regulates NFkB transcriptional program in cells. […] (F, G) PC-3 cell were treated with or without palbociclib (5 μM) for 24 hours or PC-3 cells were infected with lentivirus expressing control shRNA or RB-specific shRNA following puromycin selection after 48 hours infection. Cells were harvested for RT-qPCR (F) and ChIP-qPCR (G) analysis of p65 binding at the promotor of PD-L1, GADD45B, NR4A2, and CD83. All data were shown as mean values±SD (n=3). * P<0.05, ** P<0.01, ***P<0.001.
FIGS. 16A-K. Mutual exclusivity of PTEN and MAP3K7 gene deletion in human cancers and CDK4/6 inhibition-mediated blockage of MAP3K7 deficiency-induced death of PTEN-null cells. (A) Genetic alterations of MAP3K7 and PTEN genes in the TCGA prostate cancer dataset. (B) Genetic alterations of MAP3K7 and PTEN genes in lymphoid neoplasm diffuse large B-cell lymphoma, stomach adenocarcinoma, pancreatic cancer, liver cancer, bladder urothelial carcinoma, and lung adenocarcinoma. (C-E) PC-3 cells were infected with lentivirus expressing control or MAP3K7-specific shRNAs. 72 hours after infection, cells were harvested for western blotting (C), cell growth assay (D), and colony formation assay (E). All data were shown as mean values±SD (n=3). ns, not significant, * P<0.05 comparing to the shControl group. (F-H) LNCaP-RF prostate cancer cells were infected with lentivirus expressing control or MAP3K7-specific shRNAs. 72 hours after infection, cells were harvested for western blotting (F), cell growth assay (G), and colony formation assay (H). All data are shown as mean values±SD (n=3). ns, not significant, * P<0.05 comparing to the shControl group. (I-K) PC-3 cells were infected with lentivirus expressing control, MAP3K7 or CHD1-specific shRNAs. 72 hours after infection, cells were treated with DMSO or palbociclib (5 μM). […]
FIGS. 17A-I. Negative regulation of MAP3K7-IKK-NFκB and CHD1-NFκB signaling by RB. […] 72 hours after infection and puromycin selection, cells were injected s.c. into the right flank of NSG mice, and tumor growth was measured for 21 days. […]

PTEN-CaP8 cells = experiment: Pd-l1 and NFκB target gene expression in PTEN-CaP8 cells expressing RL peptide; type: cell-based, mouse
Procedure: FIGS. 13A-F. (A, B) PC-3 cells were treated with or without gamma irradiation (IR) (12 Gy). 24 hours post treatment, cells were treated with or without Helenalin (2 μM). 24 hours after treatment, cells were harvested for western blotting analysis (A) and RT-qPCR analysis (B). All data were shown as mean values±SD (n=3). “ns”=not significant, *** P<0.001. (C) PTEN-CaP8 cells were infected with lentivirus expression Tsin control or Tsin-RL S249D/T252D peptide. 72 hours post infection, cell were harvested for western blotting analysis. (D, E) PTEN-CaP8 cells were infected with lentivirus expression Tsin control or Tsin-RL S249D/T252D peptide. 72 hours post infection, cells were treated with or without gamma irradiation (12 Gy) for 48 hours. Cells were harvested for MTS assay (D) and RT-qPCR (E). All data were shown as mean values±SD (n=3). “ns”=not significant, ** P<0.01; *** P<0.001. (F) Schematic diagram depicting the treatment plan for mice bearing subcutaneous PTEN-CaP8 tumors.
Total RNA was isolated using TRIzol reagent (Thermo Fisher Scientific). The NanoDrop 2000 spectrophotometer (Thermo Fisher Scientific) was used to assess RNA yield and quality. […] Quantitative real-time PCR was performed by mixing cDNA, gene-specific primers, and IQ SYRB Green Supermix and detected by iCycler QTX detection system (Bio-Rad). The 2-ΔCt method was used to quantitate fold changes by normalizing to GAPDH. […]

RL-S249D/T252D: S249/T252 phospho-mimicking R-Linker (RL) peptide: fragment of RB-N containing 21 amino acids surrounding S249/T252, expressed SFB-tagged or by lentivirus (NGDPRDPRRGQNRSARIAKQL; also: expressed SFB-tagged (tag left off))
TNFα-induced expression of NFκB target genes (NFκB target genes): blocked
expression of anti-apoptotic / pro-survival NFκB target genes (PTEN-CaP8 cells; PTEN-CaP8 cells, lentiviral peptide expression): blocked
Pd-l1 expression in PTEN-CaP8 cells (PTEN-CaP8 cells; lentiviral Tsin-RL S249D/T252D, 72 hours): completely blocked

— patent publication US20210401931A1, “METHODS AND MATERIALS FOR TREATING CANCER” (Mayo Foundation for Medical Education and Research, priority 2018, published 2021)
